One series concerns the target T1, Aromatase (Homo sapiens, UniProt P11511).
T1 construct: human placenta microsome; from tissue; host or cells: human placenta microsomes
T1 sequence (P11511 1-503): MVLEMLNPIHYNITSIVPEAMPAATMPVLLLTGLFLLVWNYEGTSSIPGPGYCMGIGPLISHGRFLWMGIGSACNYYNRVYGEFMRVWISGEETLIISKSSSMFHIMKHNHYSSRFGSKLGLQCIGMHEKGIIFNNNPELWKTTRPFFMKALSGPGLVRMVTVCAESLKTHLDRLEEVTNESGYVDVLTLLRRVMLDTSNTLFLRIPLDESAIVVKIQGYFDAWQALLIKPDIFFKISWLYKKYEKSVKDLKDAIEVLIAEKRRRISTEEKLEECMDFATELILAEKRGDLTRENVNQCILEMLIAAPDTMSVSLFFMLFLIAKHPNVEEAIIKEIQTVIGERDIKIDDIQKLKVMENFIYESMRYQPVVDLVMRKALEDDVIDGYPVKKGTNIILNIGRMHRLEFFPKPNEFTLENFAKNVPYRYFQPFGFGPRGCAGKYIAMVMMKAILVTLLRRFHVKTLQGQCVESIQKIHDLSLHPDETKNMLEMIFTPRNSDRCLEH
As to the kind of experiment: Aromatase inhibitory activity (Pharmacological Test 1, human placenta microsome). It is filed as biochemical. The note with it: substrate 4-androsten-3,17-dione 1.0×10^-6 M, read-out: AI-IC50. How it is done:
Aromatase inhibitory activity was determined according to the method of E. A. Thompson and P. K. Siiteri [J. Biol. Chem., 249, 5364-5372 (1974)]. The each compound to be tested was added to a reaction vial containing human placenta microsome, [1β,2 β-^3 H]4-androsten-3,17-dione (3.3 kBq/500 pmol) and NADPH. […] The obtained [^3 H]H2 O was measured by a liquid scintillation counter. The measured quantity of [3H]H20 was used to determine aromatase activity, and was compared with the activity when incubated without inhibitor to calculate inhibition ratio (%).

Series [1] deals with T2, cholesterol side-chain cleaving enzyme (Sus scrofa, UniProt P10612).
T2 construct: porcine adrenal mitochondria; from tissue; host or cells: porcine adrenal mitochondria
T2 sequence (P10612 40-520): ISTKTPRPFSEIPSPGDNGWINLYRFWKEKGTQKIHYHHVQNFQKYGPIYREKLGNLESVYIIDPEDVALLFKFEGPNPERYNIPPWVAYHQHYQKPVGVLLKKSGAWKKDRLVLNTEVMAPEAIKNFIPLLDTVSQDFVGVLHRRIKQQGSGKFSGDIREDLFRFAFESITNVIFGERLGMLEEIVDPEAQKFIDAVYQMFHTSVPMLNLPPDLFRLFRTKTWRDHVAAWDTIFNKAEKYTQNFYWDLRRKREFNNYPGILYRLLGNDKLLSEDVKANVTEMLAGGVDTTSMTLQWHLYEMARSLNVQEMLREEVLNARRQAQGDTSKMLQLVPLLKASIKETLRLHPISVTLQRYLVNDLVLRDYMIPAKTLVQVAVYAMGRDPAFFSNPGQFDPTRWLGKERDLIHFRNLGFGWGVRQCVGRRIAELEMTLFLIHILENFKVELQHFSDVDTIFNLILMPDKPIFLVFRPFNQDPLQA
As to the kind of experiment: Inhibitory activity against cholesterol side-chain cleaving enzyme (Pharmacological Test 2, porcine adrenal mitochondria). It is filed as biochemical. The settings on record: substrate 5-cholesten-3β-ol 5.0×10^-6 M, read-out: SCC-IC50. How it is done:
Inhibitory activity against cholesterol side-chain cleaving enzyme was determined according to the method of M. Shikita and P. F. Hall [Proc. Nat. […] Briefly, the each compound to be tested was added to a reaction vial containing porcine adrenal mitochondria, [4-^14 C]5-cholesten-3β-ol (250 Bq/5 nmol) and NADPH. […] These were separated by extracting the reaction mixture with methylene-dichloride followed by purifying with thin-layer chromatography. Substrate (5-cholesten-3β-ol) and reaction product (3β-hydroxypregn-5-en-20-one) were respectively measured by a liquid scintillation counter. The measured quantity of 3β-hydroxypregn-5-en-20-one was used to determine cholesterol side-chain cleaving activity which was compared with the activity when incubated without inhibitor to calculate inhibition ratio (%).

Series [2] is described as follows: Acute toxicity in ICR female mice, oral (Pharmacological Test 4). The note with it: mouse, in vivo, suspended in distilled water with 1% hydroxypropylcellulose, observation for fourteen days. From the text:
The acute toxicity of the compounds of the present invention was examined by the following method.

In general, IC50 refers to the concentration needed to halve the response being measured. In general, LD50 refers to the dose at which mortality reaches 50%. High values mean lower toxicity, low ones greater toxicity.

Structures are written as SMILES. Where a name gives a salt, the structure may show the parent alone. Bounds are passed on as bounds.

For the compound `c1cn(-c2nc(N3CCOCC3)nc(N3CCSC3)n2)cn1` [Compound 7, 2-(1-Imidazolyl)-4-morpholino-6-(3-thiazolidinyl)-1,3,5-triazine], the figures for the IC50 (at Aromatase; in series [1]) were 6.6 nM and 72000 nM, respectively. Further, in series [2], the LD50 at 336 h was in the range of 300 to 400 mg/kg.

`N#CC1(c2ccccc2)CCN(c2nc(N3CCOCC3)nc(-n3ccnc3)n2)CC1` [Compound 13, 2-(4-Cyano-4-phenylpiperidino)-4-(1-imidazolyl)-6-morpholino-1,3,5-triazine]: the results for the IC50 (on Aromatase; in series [1]) were 9 nM and 22000 nM, respectively. For the same compound, the LD50 at 336 h in series [2] is > 400 mg/kg.

Turning to `c1cn(-c2nc(N3CCOCC3)nc(-n3ccnc3)n2)cn1` [Compound 23, 2,4-Bis(1-imidazolyl)-6-morpholino-1,3,5-triazine], the figures for the IC50 (on Aromatase; in series [1]) were 21 nM and > 100000 nM, respectively.

As for `CN(C)c1nc(-n2ccnc2)nc(-n2ccnc2)n1` [Compound 24, 2,4-Bis(1-imidazolyl)-6-dimethylamino-1,3,5-triazine], the figures for the IC50 (on Aromatase; in series [1]) were 550 nM and 80000 nM, respectively.

Regarding `CCN(CC)c1nc(-n2ccnc2)nc(-n2ccnc2)n1` [Compound 25, 2,4-Bis(1-imidazolyl)-6-diethylamino-1,3,5-triazine], the IC50 was determined as 60 nM at Aromatase and 25000 nM in series [1].

Regarding `c1cn(-c2nc(N3CCCC3)nc(-n3ccnc3)n2)cn1` [Compound 26, 2,4-Bis(1-imidazolyl)-6-(1-pyrrolidinyl)-1,3,5-triazine], the IC50 on Aromatase was 62 nM; in series [1], > 100000 nM.

For the compound `c1cn(-c2nc(N3CCCCC3)nc(-n3ccnc3)n2)cn1` [Compound 27, 2,4-Bis(1-imidazolyl)-6-piperidino-1,3,5-triazine], the figures for the concentration for half-maximal inhibition (IC50) (on Aromatase; in series [1]) were 64 nM and > 100000 nM, respectively.

As to `c1ccc(C2CCN(c3nc(-n4ccnc4)nc(-n4ccnc4)n3)CC2)cc1` [Compound 28, 2,4-Bis(1-imidazolyl)-6-(4-phenylpiperidino)-1,3,5-triazine], the IC50 amounted to 62 nM on Aromatase and 9500 nM in series [1].

Turning to `CN1CCN(c2nc(-n3ccnc3)nc(-n3ccnc3)n2)CC1` [Compound 29, 2,4-Bis (1-imidazolyl)-6-(4-methyl-1-piperazinyl)-1,3,5-triazine], the IC50 on Aromatase amounted to 230 nM; in series [1], 75000 nM.

On to `c1ccc(N2CCN(c3nc(-n4ccnc4)nc(-n4ccnc4)n3)CC2)cc1` [Compound 30, 2,4-Bis(1-imidazolyl)-6-(4-phenyl-1-piperazinyl)-1,3,5-triazine], for which the IC50 was determined as 220 nM at Aromatase and 65000 nM in series [1].

Take `c1cn(-c2nc(N3CCSCC3)nc(-n3ccnc3)n2)cn1` [Compound 31, 2,4-Bis (1-imidazolyl)-6-thiomorpholino-1,3,5-triazine]: the results for the IC50 (at Aromatase; in series [1]) were 43 nM and > 100000 nM, respectively.

For the compound `CN(c1ccccc1)c1nc(-n2ccnc2)nc(-n2ccnc2)n1` [Compound 32, 2,4-Bis(1-imidazolyl)-6-(N-methyl-N-phenylamino)-1,3,5-triazine], the IC50 on Aromatase turned out to be 29 nM; in series [1], 16000 nM.

On to `CCCCN(CCCC)c1nc(-n2ccnc2)nc(-n2ccnc2)n1` [Compound 36, 2-(Di-n-butylamino)-4,6-bis(1-imidazolyl)-1,3,5-triazine], for which the IC50 was 14 nM at Aromatase and 12000 nM in series [1].

For `c1ccc(C2CCN(c3nc(N4CCSCC4)nc(-n4ccnc4)n3)CC2)cc1` [Compound 39, 2-(1-Imidazolyl)-4-(4-phenylpiperidino)-6-thiomorpholino-1,3,5-triazine], the IC50 on Aromatase is 20 nM; in series [1], 37000 nM.

As for `CCOC(=O)C1CCN(c2nc(N3CCOCC3)nc(-n3ccnc3)n2)CC1` [Compound 40, 2-(4-Ethoxycarbonylpiperidino)-4-(1-imidazolyl)-6-morpholino-1,3,5-triazine], the IC50 on Aromatase was 24 nM; in series [1] it was 66000 nM.

With `CC(C)(C)OC(=O)C1CCCN1c1nc(N2CCOCC2)nc(-n2ccnc2)n1` (centres unmarked) [Compound 41, 2-(2-tert-Butoxycarbonyl-1-pyrrolidinyl)-4-(1-imidazolyl)-6-morpholino-1,3,5-triazine], the IC50 at Aromatase is 37 nM; in series [1], > 100000 nM.

Regarding `CC1CN1c1nc(N2CCOCC2)nc(-n2ccnc2)n1` (centres unmarked) [Compound 42, 2-(1-Imidazolyl)-4-(2-methyl-1-aziridinyl)-6-morpholino-1,3,5-triazine], the values for the IC50 (at Aromatase; in series [1]) were 57 nM and > 100000 nM, respectively.

Regarding `Fc1ccc(N2CCN(c3nc(N4CCOCC4)nc(-n4ccnc4)n3)CC2)cc1` [Compound 43, 2-[4-(4-Fluorophenyl)-1-piperazinyl]-4-(1-imidazolyl)-6-morpholino-1,3,5-triazine], the IC50 was 20 nM at Aromatase and > 100000 nM in series [1].

Turning to `c1cnc(N2CCN(c3nc(N4CCOCC4)nc(-n4ccnc4)n3)CC2)nc1` [Compound 44, 2-(1-Imidazolyl)-4-morpholino-6-[4-(2-pyrimidinyl)-1-piperazinyl]-1,3,5-triazine], the values for the IC50 (on Aromatase; in series [1]) were 33 nM and > 100000 nM, respectively.

Turning to `O=[N+]([O-])c1ccc(N2CCN(c3nc(N4CCOCC4)nc(-n4ccnc4)n3)CC2)cc1` [Compound 45, 2-(1-Imidazolyl)-4-morpholino-6-[4-(4-nitrophenyl)-1-piperazinyl]-1,3,5-triazine], the IC50 on Aromatase was 7.2 nM; in series [1] it was > 100000 nM.

`OC1CCN(c2nc(N3CCOCC3)nc(-n3ccnc3)n2)CC1` [Compound 46, 2-(4-Hydroxypiperidino)-4-(1-imidazolyl)-6-morpholino-1,3,5-triazine]: the IC50 worked out at 53 nM at Aromatase and 100000 nM in series [1].

As to `OCCC1CCCCN1c1nc(N2CCOCC2)nc(-n2ccnc2)n1` (centres unmarked) [Compound 47, 2-[2-(2-Hydroxyethyl)piperidino]-4-(1-imidazolyl)-6-morpholino-1,3,5-triazine], the IC50 on Aromatase was 44 nM; in series [1], > 100000 nM.

`CCCCN(c1ccccc1)c1nc(-n2ccnc2)nc(-n2ccnc2)n1` [Compound 50, 2-(N-n-Butyl-N-phenylamino)-4,6-bis (1-imidazolyl)-1,3,5-triazine]: the half-inhibitory concentration (IC50) at Aromatase is 16 nM; in series [1] it was 15000 nM.

`CN(c1ccc([N+](=O)[O-])cc1)c1nc(-n2ccnc2)nc(-n2ccnc2)n1` [Compound 52, 2,4-Bis(1-imidazolyl)-6-[N-methyl-N-(4-nitrophenyl)amino]-1,3,5-triazine]: the IC50 was 10 nM at Aromatase and > 100000 nM in series [1].

Take `CN(c1ccc(Cl)cc1)c1nc(-n2ccnc2)nc(-n2ccnc2)n1` [Compound 54, 2-[N-(4-Chlorophenyl)-N-methylamino]-4,6-bis(1-imidazolyl)-1,3,5-triazine]: the IC50 was determined as 8.6 nM on Aromatase and 19000 nM in series [1].

For the compound `CN(c1ccc(N)cc1)c1nc(N2CCOCC2)nc(-n2ccnc2)n1` [Compound 56, 2-[N-(4-Aminophenyl)-N-methylamino]-4-(1-imidazolyl)-6-morpholino-1,3,5-triazine], the IC50 on Aromatase was 32 nM; in series [1] it was > 100000 nM.

Regarding `Nc1ccc(N2CCN(c3nc(N4CCOCC4)nc(-n4ccnc4)n3)CC2)cc1` [hydrochloride of No. 57, Hydrochloride of 2-[4-(4-aminophenyl)-1-piperazinyl]-4-(1-imidazolyl)-6-morpholino-1,3,5-triazine], the IC50 was 31 nM at Aromatase and > 100000 nM in series [1].

The values are drawn from patent US5489591A, “S-triazine derivative and remedy for estrogen-dependent disease containing said derivative as effective component” (Zenyaku Kogyo Kabushiki Kaisha, priority 1992, dated 1996).
